The numbers were not newly measured in patent publication US20100129448A1, “TOPICAL HYDROGEL COMPOSITION” (Nanotherapeutics, Inc., priority 2008, published 2010), which cites them from elsewhere.

Turning to `C[C@H]1c2cccc(O)c2C(=O)C2=C(O)[C@]3(O)C(=O)C(C(N)=O)=C(O)[C@@H](N(C)C)[C@@H]3[C@@H](O)[C@@H]21` [Doxycycline], under “neutral pH”, the solubility entry is on record as “less than 10 mg/ml”. Turning to `C[C@H]1c2cccc(O)c2C(=O)C2=C(O)[C@]3(O)C(=O)C(C(N)=O)=C(O)[C@@H](N(C)C)[C@@H]3[C@@H](O)[C@@H]21` [Doxycycline Monohydrate], the aqueous solubility entry (pH greater than 6) was “less than 0.8 mg/ml”.
